Experimental data taken from US20260226049A1, “NITROGEN-CONTAINING HETEROCYCLIC COMPOUND, PREPARATION METHOD THEREFOR, AND USE THEREOF” (BIVISION PHARMACEUTICALS, INC, priority 2023, published 2026).

Test system: HT1080 cell line with high FAP expression
Assay: ^68Ga labeling and animal imaging assay (PET/CT) in tumor-bearing mice
Assay type: in vivo
Parameters: Imaging data, Muscle / Imaging data, Bone / Imaging data, Bladder / Imaging data, Tumor / Imaging data, Intestine / Imaging data, Brain / Imaging data, Heart / Imaging data, Liver / Imaging data, Lung / Imaging data, Kidney: unit not given here
Conditions: for uptake in the tumor at 3 hours: 3 hours after injection
Protocol: A. 1.0 mg of JHH7 precursor was weighed and dissolved in 0.1 M sodium acetate buffer to prepare a 1.0 mg/mL precursor solution.
B. The Ge/Ga generator was eluted stepwise with 5 mL of 0.1 M HCl, and the highest activity fraction (0.5 mL) was collected. 0.5 mL of metal-free 0.1 M sodium acetate buffer (pH=4.5) was added. In a 1.5 mL centrifuge tube as the reaction tube, a specific amount of precursor [1000 (molecular weight)/14.94 μL (precursor solution)/mCi (radionuclide)] was added, vortex-mixed for 10 s, and heated at 95° C., 800 rpm for 15 min.
C. The C18 Sep-Pak was activated with anhydrous ethanol, rinsed thoroughly with pure water, and the excess water was removed.
D. The solution after the reaction was passed through the C18 Sep-Pak, rinsed with pure water, and the excess water was removed. Subsequently, the C18 Sep-Pak was eluted with ethanol, collecting approximately 10 tubes with 3 drops per tube.
E. The final preparation should be a clear solution, prepared fresh for immediate use and limited to the same day.
1) The PET/CT was powered on according to the standard operating procedures, the scanning software was launched, and daily calibration was performed.
2) Animal anesthesia preparation was conducted, where tumor-bearing mice (supplied by Shanghai Alamo Pharmaceutical Technology Co., Ltd., HT1080 cell line with high FAP expression) were anesthetized using isoflurane.
3) After the loss of righting reflex in the tumor-bearing mice, the imaging agent was injected via the tail vein.
4) After drug administration, dynamic scanning at 1 hour and static scanning was performed at 3 hours were performed for 10 minutes.
5) During the process, animal body weight, injection dose, injection time, and residual dose were recorded according to the record sheet, and the time of measuring the injection dose and the time of measuring the residual dose were separately recorded.
6) The uptake in animal tumors, muscles, and other organs was analyzed using PMOD software.
^68Ga-labeled compounds JHH7 and JHH11 were imaged in tumor-bearing mice, and the results are shown in FIG. 5 and FIG. 6, with the imaging data shown in Tables 4 and 5.

[1] = tumor-bearing mice, intravenous injection

N#C[C@@H]1CC(F)(F)CN1C(=O)CNC(=O)c1ccc2c(c1)CN(C(=O)CCC(=O)NCCNC(=O)CCC(C(=O)O)N1CCN(CC(=O)[O-])CCN(CC(=O)[O-])CCN(CC(=O)[O-])CC1)C2.[68Ga+3] (stereo partly drawn) [^68Ga-JHH7]
Imaging data, Bladder (5 min): 3.02 | Imaging data, Bone (5 min): 0.17 | Imaging data, Brain (5 min): 0.90 | Imaging data, Heart (5 min): 4.61 | Imaging data, Intestine (5 min): 0.47 | Imaging data, Kidney (5 min): 6.73 | Imaging data, Liver (5 min): 1.71 | Imaging data, Lung (5 min): 1.78 | Imaging data, Muscle (5 min): 0.81 | Imaging data, Tumor (5 min): 0.91 | Imaging data, Bladder (10 min): 49.75 | Imaging data, Bone (10 min): 0.28 | Imaging data, Brain (10 min): 0.82 | Imaging data, Heart (10 min): 2.19 | Imaging data, Intestine (10 min): 0.21 | Imaging data, Kidney (10 min): 5.59 | Imaging data, Liver (10 min): 0.88 | Imaging data, Lung (10 min): 0.94 | Imaging data, Muscle (10 min): 1.56 | Imaging data, Tumor (10 min): 2.47 | Imaging data, Bladder (15 min): 84.10 | Imaging data, Bone (15 min): 0.30 | Imaging data, Brain (15 min): 0.59 | Imaging data, Heart (15 min): 1.43 | Imaging data, Intestine (15 min): 0.23 | Imaging data, Kidney (15 min): 3.87 | Imaging data, Liver (15 min): 0.50 | Imaging data, Lung (15 min): 0.79 | Imaging data, Muscle (15 min): 1.42 | Imaging data, Tumor (15 min): 3.36 | Imaging data, Bladder (20 min): 109.69 | Imaging data, Bone (20 min): 0.18 | Imaging data, Brain (20 min): 0.55 | Imaging data, Heart (20 min): 1.01 | Imaging data, Intestine (20 min): 0.22 | Imaging data, Kidney (20 min): 3.35 | Imaging data, Liver (20 min): 0.38 | Imaging data, Lung (20 min): 0.45 | Imaging data, Muscle (20 min): 1.30 | Imaging data, Tumor (20 min): 3.88 | Imaging data, Bladder (25 min): 145.55 | Imaging data, Bone (25 min): 0.17 | Imaging data, Brain (25 min): 0.48 | Imaging data, Heart (25 min): 0.94 | Imaging data, Intestine (25 min): 0.15 | Imaging data, Kidney (25 min): 2.74 | Imaging data, Liver (25 min): 0.23 | Imaging data, Lung (25 min): 0.28 | Imaging data, Muscle (25 min): 1.29 | Imaging data, Tumor (25 min): 4.70 | Imaging data, Bladder (30 min): 157.22 | Imaging data, Bone (30 min): 0.10 | Imaging data, Brain (30 min): 0.46 | Imaging data, Heart (30 min): 0.72 | Imaging data, Intestine (30 min): 0.16 | Imaging data, Kidney (30 min): 2.88 | Imaging data, Liver (30 min): 0.25 | Imaging data, Lung (30 min): 0.37 | Imaging data, Muscle (30 min): 0.97 | Imaging data, Tumor (30 min): 5.00 | Imaging data, Bladder (1.5 h): 89.40 | Imaging data, Bone (1.5 h): 0.53 | Imaging data, Brain (1.5 h): 0.23 | Imaging data, Heart (1.5 h): 0.45 | Imaging data, Intestine (1.5 h): 0.92 | Imaging data, Kidney (1.5 h): 0.71 | Imaging data, Liver (1.5 h): 0.52 | Imaging data, Lung (1.5 h): 0.54 | Imaging data, Muscle (1.5 h): 0.17 | Imaging data, Tumor (1.5 h): 6.40 | Imaging data, Bladder (3 h): 7.50 | Imaging data, Bone (3 h): 0.14 | Imaging data, Brain (3 h): 0.12 | Imaging data, Heart (3 h): 0.21 | Imaging data, Intestine (3 h): 0.60 | Imaging data, Kidney (3 h): 0.55 | Imaging data, Liver (3 h): 0.43 | Imaging data, Lung (3 h): 0.55 | Imaging data, Muscle (3 h): 0.19 | Imaging data, Tumor (3 h): 5.20 | uptake in the tumor at 3 hours: a certain amount of uptake in the tumor was still observed | time of peak uptake in the tumor after injection [1]: 1.5 h

N#C[C@@H]1CC(F)(F)CN1C(=O)CNC(=O)c1cc2c(s1)CCN(C(=O)CCC(=O)NCCNC(=O)CCNC(=O)CN1CCN(CC(=O)O)CCN(CC(=O)O)CCN(CC(=O)O)CC1)C2 [^68Ga-JHH11, metal not drawn]
Imaging data, Bladder (5 min): 4.24 | Imaging data, Bone (5 min): 0.92 | Imaging data, Brain (5 min): 0.98 | Imaging data, Heart (5 min): 8.61 | Imaging data, Intestine (5 min): 1.96 | Imaging data, Kidney (5 min): 13.43 | Imaging data, Liver (5 min): 5.43 | Imaging data, Lung (5 min): 3.12 | Imaging data, Muscle (5 min): 0.82 | Imaging data, Tumor (5 min): 1.06 | Imaging data, Bladder (10 min): 17.03 | Imaging data, Bone (10 min): 1.68 | Imaging data, Brain (10 min): 0.66 | Imaging data, Heart (10 min): 4.33 | Imaging data, Intestine (10 min): 1.99 | Imaging data, Kidney (10 min): 15.81 | Imaging data, Liver (10 min): 3.56 | Imaging data, Lung (10 min): 2.08 | Imaging data, Muscle (10 min): 1.22 | Imaging data, Tumor (10 min): 2.47 | Imaging data, Bladder (15 min): 27.04 | Imaging data, Bone (15 min): 1.17 | Imaging data, Brain (15 min): 0.59 | Imaging data, Heart (15 min): 3.22 | Imaging data, Intestine (15 min): 1.66 | Imaging data, Kidney (15 min): 20.15 | Imaging data, Liver (15 min): 2.78 | Imaging data, Lung (15 min): 1.97 | Imaging data, Muscle (15 min): 1.16 | Imaging data, Tumor (15 min): 3.26 | Imaging data, Bladder (20 min): 45.38 | Imaging data, Bone (20 min): 1.08 | Imaging data, Brain (20 min): 0.55 | Imaging data, Heart (20 min): 2.72 | Imaging data, Intestine (20 min): 1.54 | Imaging data, Kidney (20 min): 13.33 | Imaging data, Liver (20 min): 2.44 | Imaging data, Lung (20 min): 1.88 | Imaging data, Muscle (20 min): 0.98 | Imaging data, Tumor (20 min): 3.87 | Imaging data, Bladder (25 min): 60.89 | Imaging data, Bone (25 min): 1.22 | Imaging data, Brain (25 min): 0.45 | Imaging data, Heart (25 min): 2.29 | Imaging data, Intestine (25 min): 1.30 | Imaging data, Kidney (25 min): 8.42 | Imaging data, Liver (25 min): 2.16 | Imaging data, Lung (25 min): 1.47 | Imaging data, Muscle (25 min): 0.75 | Imaging data, Tumor (25 min): 4.30 | Imaging data, Bladder (30 min): 73.70 | Imaging data, Bone (30 min): 0.82 | Imaging data, Brain (30 min): 0.41 | Imaging data, Heart (30 min): 1.98 | Imaging data, Intestine (30 min): 1.22 | Imaging data, Kidney (30 min): 5.54 | Imaging data, Liver (30 min): 2.05 | Imaging data, Lung (30 min): 1.48 | Imaging data, Muscle (30 min): 0.65 | Imaging data, Tumor (30 min): 4.60 | Imaging data, Bladder (1.5 h): 265.50 | Imaging data, Bone (1.5 h): 0.50 | Imaging data, Brain (1.5 h): 0.03 | Imaging data, Heart (1.5 h): 0.20 | Imaging data, Intestine (1.5 h): 0.62 | Imaging data, Kidney (1.5 h): 1.00 | Imaging data, Liver (1.5 h): 0.78 | Imaging data, Lung (1.5 h): 0.58 | Imaging data, Muscle (1.5 h): 0.37 | Imaging data, Tumor (1.5 h): 4.40 | Imaging data, Bladder (3 h): 4.50 | Imaging data, Bone (3 h): 0.02 | Imaging data, Brain (3 h): 0.04 | Imaging data, Heart (3 h): 0.12 | Imaging data, Intestine (3 h): 0.08 | Imaging data, Kidney (3 h): 0.46 | Imaging data, Liver (3 h): 0.82 | Imaging data, Lung (3 h): 0.25 | Imaging data, Muscle (3 h): 0.08 | Imaging data, Tumor (3 h): 2.30 | uptake in the tumor at 3 hours: tumor uptake was still observed | metabolism and excretion from the mice (after injection): rapidly metabolized and excreted from the mice | time of peak tumor uptake after injection [1]: 30 min
